ChEMBL document CHEMBL3885861, “Open TG-GATES”

Organism: Rattus norvegicus
Assay: Open TG-GATES - Regimen: Daily Repeat
Assay type: toxicity, organism-based, Sprague-Dawley
Set-up: regimen Daily Repeat, gender Male, age 6 weeks
Conditions: in vivo, po, 1000 mg/kg, route gavage, dose level High; for APTT / Bas / Eos / Fbg / Hb / Ht / Lym / MCH / MCHC / MCV / Mono / Neu / PT / Plat / RBC / Ret / WBC: tissue Blood; for KIDNEY_L / KIDNEY_R / KIDNEY_TOTAL: tissue Kidney; for LIVER: tissue Liver; for A/G / ALP / ALT / AST / BUN / CRE / Ca / Cl / DBIL / GLC / IP / K / LDH / Na / PL / RALB / TBIL / TC / TG / TP / gamma-GTP: tissue Plasma

O=C(OC[C@H]1O[C@@H](OC(=O)c2cc(O)c(O)c(OC(=O)c3cc(O)c(O)c(O)c3)c2)[C@H](OC(=O)c2cc(O)c(O)c(OC(=O)c3cc(O)c(O)c(O)c3)c2)[C@@H](OC(=O)c2cc(O)c(O)c(OC(=O)c3cc(O)c(O)c(O)c3)c2)[C@@H]1OC(=O)c1cc(O)c(O)c(OC(=O)c2cc(O)c(O)c(O)c2)c1)c1cc(O)c(O)c(OC(=O)c2cc(O)c(O)c(O)c2)c1 [TANNIC ACID]
TERMINAL_BW (72 h, time 3 day): 216.2 g
APTT (72 h, time 3 day): 17 s
Bas (72 h, time 3 day): 0%
Eos (72 h, time 3 day): 1.4%
Fbg (72 h, time 3 day): 234.6 mg/dL
Hb (72 h, time 3 day): 13.2 g/dL
Ht (72 h, time 3 day): 39.6%
Lym (72 h, time 3 day): 67.8%
MCH (72 h, time 3 day): 21.3 pg
MCHC (72 h, time 3 day): 33.3%
MCV (72 h, time 3 day): 63.8 fL
Mono (72 h, time 3 day): 10.2%
Neu (72 h, time 3 day): 20.6%
PT (72 h, time 3 day): 11.6 s
Plat (72 h, time 3 day): 110.8 x10_4/uL
RBC (72 h, time 3 day): 621.4 x10_4/ul
Ret (72 h, time 3 day): 7.9%
WBC (72 h, time 3 day): 91.3 x10_2/uL
KIDNEY_L (72 h, time 3 day): 1 g
KIDNEY_R (72 h, time 3 day): 1 g
KIDNEY_TOTAL (72 h, time 3 day): 1.9 g
LIVER (72 h, time 3 day): 10.6 g
A/G (72 h, time 3 day): 2
ALP (72 h, time 3 day): 818.6 IU/L
ALT (72 h, time 3 day): 42.6 IU/L
AST (72 h, time 3 day): 65.6 IU/L
BUN (72 h, time 3 day): 17.6 mg/dL
CRE (72 h, time 3 day): 0.4 mg/dL
Ca (72 h, time 3 day): 10.9 mg/dL
Cl (72 h, time 3 day): 104.2 meq/L
DBIL (72 h, time 3 day): 0.004 mg/dL
GLC (72 h, time 3 day): 204.4 mg/dL
IP (72 h, time 3 day): 7.9 mg/dL
K (72 h, time 3 day): 4.6 meq/L
LDH (72 h, time 3 day): 81.6 IU/L
Na (72 h, time 3 day): 139.4 meq/L
PL (72 h, time 3 day): 152.8 mg/dL
RALB (72 h, time 3 day): 3.6 g/dL
TBIL (72 h, time 3 day): 0.4 mg/dL
TC (72 h, time 3 day): 85 mg/dL
TG (72 h, time 3 day): 88.6 mg/dL
TP (72 h, time 3 day): 5.5 g/dL
gamma-GTP (72 h, time 3 day): 1.2 IU/L
TERMINAL_BW ([…], time 7 day): 253.1 g
TERMINAL_BW ([…], time 14 day): 291.2 g
TERMINAL_BW ([…], time 28 day): 390.8 g
APTT ([…], time 7 day): 17.3 s
Bas ([…], time 7 day): 0%
Eos ([…], time 7 day): 1%
Fbg ([…], time 7 day): 227.4 mg/dL
Hb ([…], time 7 day): 13.3 g/dL
Ht ([…], time 7 day): 40%
Lym ([…], time 7 day): 72%
MCH ([…], time 7 day): 21.8 pg
MCHC ([…], time 7 day): 33.3%
MCV ([…], time 7 day): 65.5 fL
Mono ([…], time 7 day): 6%
Neu ([…], time 7 day): 21.2%
PT ([…], time 7 day): 11.3 s
Plat ([…], time 7 day): 121.1 x10_4/uL
RBC ([…], time 7 day): 610.4 x10_4/ul
Ret ([…], time 7 day): 7.4%
WBC ([…], time 7 day): 103.9 x10_2/uL
APTT ([…], time 14 day): 16.4 s
Bas ([…], time 14 day): 0%
Eos ([…], time 14 day): 1%
Fbg ([…], time 14 day): 241.2 mg/dL
Hb ([…], time 14 day): 14.5 g/dL
Ht ([…], time 14 day): 43.2%
Lym ([…], time 14 day): 74.8%
MCH ([…], time 14 day): 20.5 pg
MCHC ([…], time 14 day): 33.4%
MCV ([…], time 14 day): 61.3 fL
Mono ([…], time 14 day): 9.4%
Neu ([…], time 14 day): 14.8%
PT ([…], time 14 day): 11.5 s
Plat ([…], time 14 day): 121.1 x10_4/uL
RBC ([…], time 14 day): 705.6 x10_4/ul
Ret ([…], time 14 day): 4.7%
WBC ([…], time 14 day): 116.2 x10_2/uL
APTT ([…], time 28 day): 16 s
Bas ([…], time 28 day): 0%
Eos ([…], time 28 day): 1.6%
Fbg ([…], time 28 day): 225.2 mg/dL
Hb ([…], time 28 day): 14.4 g/dL
Ht ([…], time 28 day): 43%
Lym ([…], time 28 day): 78.2%
MCH ([…], time 28 day): 19.4 pg
MCHC ([…], time 28 day): 33.5%
MCV ([…], time 28 day): 57.9 fL
Mono ([…], time 28 day): 7.6%
Neu ([…], time 28 day): 12.6%
PT ([…], time 28 day): 11.6 s
Plat ([…], time 28 day): 118.3 x10_4/uL
RBC ([…], time 28 day): 741.4 x10_4/ul
Ret ([…], time 28 day): 3.1%
WBC ([…], time 28 day): 130.6 x10_2/uL
KIDNEY_L ([…], time 7 day): 1.1 g
KIDNEY_R ([…], time 7 day): 1.1 g
KIDNEY_TOTAL ([…], time 7 day): 2.2 g
KIDNEY_L ([…], time 14 day): 1.1 g
KIDNEY_R ([…], time 14 day): 1.1 g
KIDNEY_TOTAL ([…], time 14 day): 2.3 g
KIDNEY_L ([…], time 28 day): 1.4 g
KIDNEY_R ([…], time 28 day): 1.4 g
KIDNEY_TOTAL ([…], time 28 day): 2.8 g
LIVER ([…], time 7 day): 12.1 g
LIVER ([…], time 14 day): 12.9 g
LIVER ([…], time 28 day): 16.8 g
A/G ([…], time 7 day): 1.7
ALP ([…], time 7 day): 897.4 IU/L
ALT ([…], time 7 day): 34.2 IU/L
AST ([…], time 7 day): 60 IU/L
BUN ([…], time 7 day): 16.2 mg/dL
CRE ([…], time 7 day): 0.5 mg/dL
Ca ([…], time 7 day): 10.8 mg/dL
Cl ([…], time 7 day): 103.2 meq/L
DBIL ([…], time 7 day): 0.012 mg/dL
GLC ([…], time 7 day): 200.4 mg/dL
IP ([…], time 7 day): 8 mg/dL
K ([…], time 7 day): 4.6 meq/L
LDH ([…], time 7 day): 93.4 IU/L
Na ([…], time 7 day): 136.6 meq/L
PL ([…], time 7 day): 125.4 mg/dL
RALB ([…], time 7 day): 3.7 g/dL
TBIL ([…], time 7 day): 0.4 mg/dL
TC ([…], time 7 day): 62.6 mg/dL
TG ([…], time 7 day): 91 mg/dL
TP ([…], time 7 day): 5.9 g/dL
gamma-GTP ([…], time 7 day): 1 IU/L
A/G ([…], time 14 day): 1.9
ALP ([…], time 14 day): 720.4 IU/L
ALT ([…], time 14 day): 35.4 IU/L
AST ([…], time 14 day): 58.6 IU/L
BUN ([…], time 14 day): 17.8 mg/dL
CRE ([…], time 14 day): 0.5 mg/dL
Ca ([…], time 14 day): 10.7 mg/dL
Cl ([…], time 14 day): 104.6 meq/L
DBIL ([…], time 14 day): 0.024 mg/dL
GLC ([…], time 14 day): 204.2 mg/dL
IP ([…], time 14 day): 8.3 mg/dL
K ([…], time 14 day): 4.6 meq/L
LDH ([…], time 14 day): 87.6 IU/L
Na ([…], time 14 day): 140.4 meq/L
PL ([…], time 14 day): 145.2 mg/dL
RALB ([…], time 14 day): 3.8 g/dL
TBIL ([…], time 14 day): 0.4 mg/dL
TC ([…], time 14 day): 70.4 mg/dL
TG ([…], time 14 day): 115.8 mg/dL
TP ([…], time 14 day): 5.8 g/dL
gamma-GTP ([…], time 14 day): 0.8 IU/L
A/G ([…], time 28 day): 1.8
ALP ([…], time 28 day): 573 IU/L
ALT ([…], time 28 day): 31.6 IU/L
AST ([…], time 28 day): 54 IU/L
BUN ([…], time 28 day): 20.4 mg/dL
CRE ([…], time 28 day): 0.5 mg/dL
Ca ([…], time 28 day): 10.7 mg/dL
Cl ([…], time 28 day): 105.8 meq/L
DBIL ([…], time 28 day): 0.006 mg/dL
GLC ([…], time 28 day): 199.2 mg/dL
IP ([…], time 28 day): 7.8 mg/dL
K ([…], time 28 day): 4.5 meq/L
LDH ([…], time 28 day): 87.8 IU/L
Na ([…], time 28 day): 139 meq/L
PL ([…], time 28 day): 152.6 mg/dL
RALB ([…], time 28 day): 3.8 g/dL
TBIL ([…], time 28 day): 0.4 mg/dL
TC ([…], time 28 day): 73.4 mg/dL
TG ([…], time 28 day): 139.4 mg/dL
TP ([…], time 28 day): 6 g/dL
gamma-GTP ([…], time 28 day): 1 IU/L
